Measured values taken from US6646137B1, “Non-peptide GnRH agents” (priority 1998, dated 2003).
Where two headings read alike, the source gives them in different places.

Target: T1, human GnRH receptor (Homo sapiens, UniProt P30968)
T1 construct: The cDNA for the human GnRH receptor is cloned into the plasmid expression vector, pcDNA 3; expressed in transfected cells; host or cells: HEK 293 cells, stably transfected (pcDNA 3); membrane preparation
T1 sequence (P30968 1-328): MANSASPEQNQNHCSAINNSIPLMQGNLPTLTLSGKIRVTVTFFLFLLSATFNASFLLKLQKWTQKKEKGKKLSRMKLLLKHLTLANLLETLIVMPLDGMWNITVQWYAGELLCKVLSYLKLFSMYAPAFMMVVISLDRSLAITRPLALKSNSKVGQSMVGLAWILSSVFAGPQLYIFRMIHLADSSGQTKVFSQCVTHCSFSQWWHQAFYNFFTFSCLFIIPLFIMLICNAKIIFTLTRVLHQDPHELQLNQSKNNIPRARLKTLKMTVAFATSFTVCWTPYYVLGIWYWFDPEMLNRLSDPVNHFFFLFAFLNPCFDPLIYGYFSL
Experiment: GnRH receptor competitive radioligand binding assay (125I-GnRH-A, HEK 293 cell membranes)
Conditions: compound at 10 μM
From the text: The cDNA for the human GnRH receptor is cloned into the plasmid expression vector, pcDNA 3 (In Vitrogen), and stably transfected in HEK 293 cells (a cell line developed by Dr. Stuart Sealfon, Mount Sinai Medical School, New York, N.Y.).
The human GnRH receptor (hGnRH) is cloned into pcDNA 3 (In Vitrogen), which provides high-level expression and a neomycin resistance marker. Lipofectamine (GIBCO BRL) is used to transfect HEK 293 cells with plasmid DNA. This method involves mixing the plasmid and reagent in serum-free medium, allowing DNA-liposome complexes to form, and overlaying cells with this solution. The HEK 293 cells are plated (seeded) on a 10-cm tissue culture dish at a density of 3×10^6 cells/dish the day before transfection. For each plate, 8 μg DNA plus 0.8 mL serum-free medium is mixed with 48 μL lipofectamine plus 0.8 mL serum-free medium, followed by incubation for 30 minutes at room temperature to allow DNA-liposome complexes to form. Serum-free medium is added to give a final volume of 6 mL/plate. The cells are rinsed twice with serum-free medium and overlayed with the DNA-liposome mixture. Five hours after transfection, an equal volume (6 mL) of medium containing 20% FBS (fetal bovine serum) is added. The cells are fed with fresh complete medium 18-24 hours after transfection. The cells are split 72 hours following transfection, at densities of 1:10 and 1:20. Stable tranformants are selected for by growth of the cells in antibiotic containing medium (G418, Sigma Chemical Company (also known as Geneticin)). Colonies are isolated and tested for receptor expression by radioligand binding and by measuring phosphoinositol turnover.
HEK 293 cells stably transfected with human GnRH receptors as described above are grown in MEM (minimal essential medium, available from Sigma Chemical Company) supplemented with 0.1% G418 (Sigma Chemical Company). Cells are homogenized in buffer A containing 50 mM Tris (pH 74.), 0.32M sucrose, 2 mM ethyleneglycol-bis(β-aminoethyl)-N,N,N′,N′-tetraacetic acid (EGTA), 1 mM phenylmethylsulfonyl fluoride (PMSF), 5 μg/mL aprotinen, 5 μg/mL Pepstatin A, and 1 μg/mL leupeptin. The homogenized cells are centrifuged at 4° C. at 20,000×g for 25 minutes, resuspended in buffer A, and recentrifuged at 4° C. at 20,000×g for an additional 25 minutes. Total membrane protein is determined with a BCA kit (Pierce, Rockford, Ill.). Membranes are stored at −70° C. at a final membrane protein concentration of 5 mg/mL.
The radioiodinated agonist analog of GnRH, [des-Gly^10, D-Ala^8]GnRH ethylamide (GnRH-A), is used as the labeled ligand. One μg of GnRH-A diluted in 0.1M acetic acid is added to an lodogen®-coated borosilicate glass tube pierce) containing 35 μL of 0.05M phosphate buffer (pH 7.4-7.6) and 1 mCi of Na[^125I]. The reaction mixture is vortexed and incubated for 1 minute at room temperature. After one minute, the mixture is vortexed again and allowed to incubate for an additional minute. Two mL of 0.5M acetic acid/1% BSA is added to the reaction tube, and the mixture is added to a C18 Sep-Pak cartridge. The cartridge is washed with subsequent washes of 5 mL H2O and 5 mL 0.5M acetic acid, and then eluted with 5×1 mL of 60% CH3CN/40% 0.5M acetic acid. The eluant is diluted with 3×volume of HPLC buffer A (0.1% TFA in H2O) and loaded onto a C18 column. The iodinated product is eluted over 20-25 minutes with a gradient of 25-100% CH3CN containing 0.1% TFA. The radioactive fractions (750 μL/fraction) are collected into clean polypropylene tubes containing 10 μL of 10% BSA. Fractions are assessed for biological activity by radioligand binding. Active fractions are utilized to screen the compounds for competitive binding assays.
HEK 293 cell membranes stably expressing hGnRHR (human GnRH receptors) are diluted to 0.5-1.0 mg/mL with assay buffer containing 50 mM HEPES (pH 7.4), 1 mM ethylenediarninetetraacetic acid (EDTA), 2.5 mM MgCl2, and 0.1% BSA. […]

[1] = average of 1st and 2nd test, read-out: Average % Remaining (percent of specific binding remaining)
[2] = crude compounds, 125I-GnRH-A, lower value = higher inhibition, read-out: % Remaining 1st Test (percent of specific binding remaining)
[3] = crude compounds, 125I-GnRH-A, lower value = higher inhibition, read-out: % Remaining 2nd Test (percent of specific binding remaining)

SMILES	remaining activity at 10 µM [1] [%]	remaining activity at 10 µM [2] [%]	remaining activity at 10 µM [3] [%]
Cc1cc2c(cc1CN(CC1CCCC(CNC(=N)N)C1)C(=O)c1ccco1)C(C)(C)CCC2(C)C (stereo not drawn) [Compound 55]	-2	-2	-1
Cc1cc2c(cc1CN(CC1CCCC(CNC(=N)N)C1)C(=O)c1ccccc1)C(C)(C)CCC2(C)C (stereo not drawn) [Compound 56]	58	56	60
CC(=O)N(Cc1cc2c(cc1C)C(C)(C)CCC2(C)C)CC1CCCC(CNC(=N)N)C1 (stereo not drawn) [Compound 57]	55	47	63
Cc1cc2c(cc1CN(CC1CCCC(CNC(=N)N)C1)C(=O)c1ccc(Cl)nc1)C(C)(C)CCC2(C)C (stereo not drawn) [Compound 58]	59	57	60
N=C(N)NCC1CCCC(CN(Cc2ccc(OCc3ccccc3)c(OCc3ccccc3)c2)C(=O)C2CCCCC2)C1 (stereo not drawn) [Compound 59]	59	57	60
N=C(N)NCC1CCCC(CN(Cc2ccc(OCc3ccccc3)c(OCc3ccccc3)c2)C(=O)c2ccccc2)C1 (stereo not drawn) [Compound 62]	52	49	55
CC(=O)N(Cc1ccc(OCc2ccccc2)c(OCc2ccccc2)c1)CC1CCCC(CNC(=N)N)C1 (stereo not drawn) [Compound 63]	48	49	47
N=C(N)NCC1CCCC(CN(Cc2ccc(OCc3ccccc3)c(OCc3ccccc3)c2)C(=O)c2ccc(Cl)nc2)C1 (stereo not drawn) [Compound 64]	49	46	51
N=C(N)NCC1CCCC(CN(Cc2ccc3c(c2)OCCO3)C(=O)c2cccc3ccccc23)C1 (stereo not drawn) [Compound 65]	55	50	59
N=C(N)NCC1CCCC(CN(Cc2ccc3c(c2)OCCO3)C(=O)c2ccc3ccccc3c2)C1 (stereo not drawn) [Compound 66]	54	50	57
CN(C)Cc1ccc(CN(CC2C=CCC3C4CC=CCC4OC23)C(=O)c2ccc3ccccc3c2)cc1 (stereo not drawn) [Compound 68]	48	61	44
CN(C)Cc1ccc(CN(Cc2ccc(OCc3ccccc3)c(OCc3ccccc3)c2)C(=O)c2cccs2)cc1 [Compound 69]	57	59	54
CN(C)Cc1ccc(CN(Cc2ccc(OCc3ccccc3)c(OCc3ccccc3)c2)C(=O)c2ccco2)cc1 [Compound 70]	45	47	48
CC(C)(C)c1ccc(CN(CC2CCC(CNC(=N)N)CC2)C(=O)c2ccco2)cc1 (stereo not drawn) [Compound 71]	60	54	65
CC(C)(C)c1ccc(CN(CC2CCC(CNC(=N)N)CC2)C(=O)c2cc3ccccc3s2)cc1 (stereo not drawn) [Compound 72]	52	49	54
CC(C)(C)c1ccc(CN(CC2CCC(CNC(=N)N)CC2)C(=O)C2CCCC2)cc1 (stereo not drawn) [Compound 73]	58	59	57
CN(C)COc1ccc(CN(CC2CCC(CNC(=N)N)CC2)C(=O)c2cc3ccccc3s2)cc1 (stereo not drawn) [Compound 74]	50	51	48
CC(=O)N(Cc1cccc(Oc2ccc(Cl)cc2)c1)CC1CCC(CNC(=N)N)CC1 (stereo not drawn) [Compound 75]	59	59	58

Other lines, results leading:

remaining activity at 10 µM [1] [%]	remaining activity at 10 µM [2] [%]	remaining activity at 10 µM [3] [%]	SMILES
60	60	60	N=C(N)NCC1CCC(CN(Cc2cccc(Oc3ccc(Cl)cc3)c2)C(=O)c2ccc(Cl)nc2)CC1 (stereo not drawn) [Compound 76]
52	48	56	N=C(N)NCC1CCC(CN(Cc2cccc(Oc3ccc(Cl)cc3)c2)C(=O)C2CCCC2)CC1 (stereo not drawn) [Compound 77]
59	59	58	N=C(N)NCC1CCC(CN(CC23CC=CCC2C2CC=CCC2O3)C(=O)c2cc3ccccc3s2)CC1 (stereo not drawn) [Compound 78]
49	50	48	Cc1cc2c(cc1CN(CC1CCC(CNC(=N)N)CC1)C(=O)c1ccc([N+](=O)[O-])o1)C(C)(C)CCC2(C)C (stereo not drawn) [Compound 79]
-4	-4	-4	Cc1cc2c(cc1CN(CC1CCC(CNC(=N)N)CC1)C(=O)c1ccco1)C(C)(C)CCC2(C)C (stereo not drawn) [Compound 80]
27	28	25	Cc1cc2c(cc1CN(CC1CCC(CNC(=N)N)CC1)C(=O)COCc1ccccc1)C(C)(C)CCC2(C)C (stereo not drawn) [Compound 81]
41	46	35	COCC(=O)N(Cc1cc2c(cc1C)C(C)(C)CCC2(C)C)CC1CCC(CNC(=N)N)CC1 (stereo not drawn) [Compound 82]
55	53	57	CC(=O)N(Cc1cc2c(cc1C)C(C)(C)CCC2(C)C)CC1CCC(CNC(=N)N)CC1 (stereo not drawn) [Compound 83]
48	52	44	Cc1cc2c(cc1CN(CC1CCC(CNC(=N)N)CC1)C(=O)c1ccc(Cl)nc1)C(C)(C)CCC2(C)C (stereo not drawn) [Compound 84]
51	52	50	Cc1cc2c(cc1CN(CC1CCC(CNC(=N)N)CC1)C(=O)C1CCCC1)C(C)(C)CCC2(C)C (stereo not drawn) [Compound 85]
51	56	45	N=C(N)NCC1CCC(CN(Cc2cc3c(cc2Cl)OCO3)C(=O)c2ccco2)CC1 (stereo not drawn) [Compound 86]
52	57	47	CCOc1cc(OCC)c(OCC)cc1CN(CC1CCC(CNC(=N)N)CC1)C(=O)c1ccco1 (stereo not drawn) [Compound 87]
